Assay results as given in article PMC7667029, “A Targeted Computational Screen of the SWEETLEAD Database Reveals FDA-Approved Compounds with Anti-Dengue Viral Activity” (mBio, 2020).
“Also recorded” adds a separate entry of the source.

What was measured:
dengue virus [1] = experiment: Initial screening of hit compounds for anti-dengue activity in tissue culture cells (Table S1); format: cell-based; conditions: viral titer relative to vehicle, tissue culture cell lines (BHK-21 48 hpi, Fig. S1; Huh7, Fig. 2C, 3C, 4C)
Method: For each query molecule, the top 500 compound hits obtained from the ROCS algorithm, as ranked by the Tanimoto combo score (see Data Set S1 in the supplemental material), were manually inspected for similar chemical and structural features. They were further prioritized by factors such as a lack of known side effects, commercial availability, and the intellectual property considerations that would be needed for worldwide, inexpensive use. Fourteen candidates were tested for their effects on dengue virus growth and toxicity in BHK-21 and Huh7 cells (see Table S1 and Fig. S1 in the supplemental material).
(§1) Supplementary file : TABLE S1 Summary of hits for lead compounds ARDP0006 and ST-148 screened for anti-dengue activity in tissue culture cells. Hit compounds were tested for anti-dengue activity and cell toxicity in tissue culture cell lines. Antiviral activity is summarized as follows: −, not antiviral, with titer greater than 50% of vehicle; +, weakly antiviral, with titer between 20 and 50% of vehicle; ++, moderately antiviral, with titer between 5 and 20% of vehicle; +++, highly antiviral, with titer less than 5% of vehicle. Toxicity at these doses is represented as follows: −, nontoxic, with cell viability greater than 80% of vehicle; +, mild toxicity, with cell viability between 60 and 80% of vehicle; +++, high toxicity, with cell viability less than 60% of vehicle. Data summarized here are depicted graphically in Fig. S1 and Fig. 2C, 3C, and [4]C. The Tanimoto combo score of each hit during initial ROCS screening is indicated; higher Tanimoto combo scores are indicative of increased chemical similarity. Download Table S1, PDF file, 0.04 MB.
Supplementary file : FIG S1 Initial screening of eliminated hit compounds for anti-dengue activity in tissue culture cells. BHK-21 cells were pretreated with the compounds at the indicated concentrations for 30 min, infected with dengue virus at an MOI of 0.1 PFU/cell for 1 h, and then posttreated with compound. At 48 hpi, cellular supernatant was collected and titered by plaque assay (purple). Cell viability in uninfected cells in the presence of compounds for 48 h was measured by WST assay (gray). Both viral titer and cell viability are normalized to their relative DMSO vehicle control, N = 2. Download FIG S1, PDF file, 0.06 MB.

dengue viral RNA = experiment: Intracellular viral RNA quantification by qRT-PCR in infected Huh7 cells; format: cell-based, dengue virus
Method: (§2) (A) Chemical structures and (B) ROCS overlay of ST-148 and niclosamide. […] Compound addition, viral growth, and cytotoxicity assays were performed as described in the legend to Fig. 2C. (D) Virucidal activity of compounds at the concentrations indicated was measured after 60-min incubation of drugs with virus-containing solutions at 37°C. Viral titer was quantified by plaque assay on BHK-21 cells. n = 3. Statistical significance was evaluated by one-way ANOVA with Sidak’s multiple-comparison test and indicated as follows: *, P < 0.05; **, P < 0.01; ****, P < 0.0001; ns, not significant. […] On the left, cells were pretreated for 2 h prior to infection, compounds were removed during a 1-h infection at an MOI of 0.5 PFU/cell and then readministered after removal of viral inoculum. On the right, cells were similarly infected and compounds were first introduced 4 h after starting the infection. […] (F) To test the effect of ST-148 and niclosamide on viral RNA replication, Huh7 cells were infected for 1 h at an MOI of 0.5 PFU/cell. […] Intracellular RNA was collected at the time points indicated and quantified by qRT-PCR. […] N = 4, two-way ANOVA with Dunnett’s multiple-comparison test. […] After 4 h of infection, 10 μM ST-148 or 1 μM niclosamide was added; extracellular virus was collected at 24 hpi and quantified by plaque assay.

DENV2 = experiment: Antiviral activity in DENV2-infected Huh7 cells, infectious virus in supernatant by plaque assay; format: cell-based, dengue virus
Method: FIG 2 Pyrimethamine inhibits dengue virus and NS2B/3 proteinase cleavage like ARDP0006. (A) Chemical structures and (B) ROCS overlay of ARDP0006 and pyrimethamine. […] Infectious virus in cell supernatant was quantified by plaque assay at 24 hpi (left y axis, black or red). Cell viability was measured at the same pyrimethamine doses 24 h posttreatment by WST-1 assay (right y axis, gray). Viral titer and cell viability were normalized to DMSO-treated samples. (D) Splenic titers of DENV2-infected AGB6 mice at 4 days postinfection. Mice were infected with 1 × 10^6 PFU DENV2 and treated twice daily with 20 mg/kg pyrimethamine (n = 9) or a vehicle control (n = 10). Data were analyzed by two-tailed unpaired t test. (E) Cleavage kinetics of NS2B/3/4A in the presence of 100 μM pyrimethamine. NS2B/3/4A protein was expressed in vitro and radiolabeled with [^35S]methionine, followed by treatment with 100 μM pyrimethamine or DMSO. Reaction samples were obtained over a 45-min time course, separated by SDS-PAGE, and the fraction of uncleaved proteinase precursor remaining was determined as described previously ([23]). Data from three replicates were fit using single-phase exponential decay functions, and P value was determined by comparing the rate constant, K, of the models using the extra sum-of-squares F test.
Dengue plaque assays were carried out on BHK-21 cells in 24-well plates. Cells were infected with 10-fold serial dilutions of virus, which were allowed to adsorb for at least 1 h at 37°C, and overlaid with standard cell culture medium plus 0.37% (w/vol) sodium bicarbonate and 0.8% (w/vol) Aquacide II (Millipore Calbiochem). After 7 days of incubation at 37°C, 5% CO2, cells were fixed with 5% (final) formaldehyde and stained with crystal violet for plaque enumeration.
Between 4 × 10^4 and 1 × 10^5 Huh7 cells per well were seeded into 24-well plates 1 day prior to infection. Compounds were diluted to 100× final concentration in DMSO and then further diluted 1:100 into appropriate cell culture. Unless otherwise indicated, tested compounds were present for 1 h pretreatment and readministered for posttreatment following infection. […] Media and drugs were removed from cells for infection at a multiplicity of infection (MOI) of 0.1 or 0.5 in 200 μl cold medium per well. After 1 h at 37°C, virus inoculum was removed by aspiration and replaced with medium plus compound or control. After 24-h total infection, infectious virus was quantified by plaque assay. Antiviral IC50 dose-response curves were fitted in GraphPad Prism 8 using the “[inhibitor] versus response, variable slope” function with a constraint “bottom > 0.” IC90 values are defined as the dose at which “y = (span × 0.1) + bottom.”

dengue virus [2] = experiment: Virucidal activity assay, 60-min incubation of drug with virus, plaque assay on BHK-21 cells; format: cell-based; conditions: 0.1 μM ST-148, 1 h at 37°C
Method: as §2
Compounds were diluted to 100× in DMSO, then further diluted 1:100 into phosphate-buffered saline (PBS) containing dengue virus to a final volume of 200 μl and mixed. Aliquots were taken for plaque assays immediately after addition of compounds (time [T] = 0 min) or after incubation at 37°C for 60 min (T = 60 min).

BHK-21 and Huh7 cells = experiment: Cell viability by WST assay in uninfected cells (Table S1); format: cell-based; conditions: cell viability relative to vehicle at these doses
Method: as §1, with “The Tanimoto combo score of each hit during initial ROCS screening is indicated; higher Tanimoto combo scores are indicative of increased chemical similarity. Download Table S1, PDF file, 0.04 MB.” left out
Supplementary file : FIG S1 Initial screening of eliminated hit compounds for anti-dengue activity in tissue culture cells. […] Cell viability in uninfected cells in the presence of compounds for 48 h was measured by WST assay (gray). […]
Mock-infected wells were used to determine cell viability in the presence of chemical compounds compared to 1% DMSO vehicle control. Cell viability was determined using the WST-1 kit (Abcam) per the manufacturer’s instructions. […]

| Structure (SMILES) | Antiviral (dengue virus [1]) | further results |
| --- | --- | --- |
| COc1cc2nc(N3CCN(C(=O)C4COc5ccccc5O4)CC3)nc(N)c2cc1OC (stereo not shown) [Doxazosin] | + (weakly antiviral, with titer between 20 and 50% of vehicle) |  |
| CC1=NN(c2ccc(C)c(C)c2)C(=O)/C1=N\Nc1cccc(-c2cccc(C(=O)O)c2)c1O [Eltrombopag] | − (not antiviral, with titer greater than 50% of vehicle) |  |
| Nc1c2c(nc3ccccc13)CCCC2O (stereo not shown) [Hydroxy tacrine] | − (not antiviral, with titer greater than 50% of vehicle) |  |
| C[C@@]1(O)[C@H](O)[C@@H](CO)O[C@H]1n1ccc2c(N)ncnc21 [MK0608] |  | Viral RNA abundance (dengue viral RNA; 50 μM MK0608, control for inhibited vRNA replication): significantly reduced vRNA load; also recorded: strongly reduced viral RNA abundance |
| Cc1cnc(NC(=O)C2=C(O)c3ccccc3S(=O)(=O)N2C)s1 [Meloxicam] | − (not antiviral, with titer greater than 50% of vehicle) |  |
| COc1c2occc2cc2ccc(=O)oc12 [Methoxsalen] | − (not antiviral, with titer greater than 50% of vehicle) |  |
| Cc1c(NC(=O)c2cccnc2)c(=O)n(-c2ccccc2)n1C [Nifenazone] | + (weakly antiviral, with titer between 20 and 50% of vehicle) |  |
| COc1ccc2[nH]c([S+]([O-])Cc3ncc(C)c(OC)c3C)nc2c1 (stereo not shown) [Omeprazole] | − (not antiviral, with titer greater than 50% of vehicle) |  |
| Cc1nccn1CC1CCc2c(c3ccccc3n2C)C1=O (stereo not shown) [Ondansetron] | ++ (moderately antiviral, with titer between 5 and 20% of vehicle) |  |
| Cc1cccn2c(=O)c(-c3nnn[nH]3)cnc12 [Pemirolast] | − (not antiviral, with titer greater than 50% of vehicle) |  |
| Nc1c(C(=O)Nc2nnc(-c3ccccc3)s2)sc2nc3c(cc12)CCCCC3 [ST-148] |  | Viral RNA abundance (dengue viral RNA; added 4 h postinfection at IC90 dose (5.6 μM ST-148, 0.66 μM niclosamide)): no difference in viral RNA abundance; Virion production at increased dose after entry (DENV2; 10 μM ST-148 or 1 μM niclosamide added after 4 h of infection, extracellular virus at 24 hpi): effective during later, postentry stages; also recorded: inhibited virion production; IC90 (DENV2; Dengue virus, Huh-7, DENV2-infected Huh7 cells, from dose-response curve fit, 24 hpi): 5.6 µM; IC50 (DENV2; Dengue virus, Huh-7, DENV2-infected Huh7 cells, single infectious cycle, plaque assay at 24 hpi, read-out: IC50 of viral inhibition (infectious extracellular virus)): 0.38 µM; Viral titer on delayed addition of compound (DENV2; IC90 dose first added 4 h after infection, Huh7, 24 hpi): eliminated the observed reduction of viral titer; Virucidal activity (viral infectivity after coincubation) (dengue virus [2]): significantly reduced viral infectivity |
| Cc1noc(NS(=O)(=O)c2ccc(N)cc2)c1C [Sulfisoxazole] | + (weakly antiviral, with titer between 20 and 50% of vehicle) |  |
| Nc1nc(N)c2nc(-c3ccccc3)c(N)nc2n1 [Triamterine] | +++ (highly antiviral, with titer less than 5% of vehicle) | Toxicity (BHK-21 and Huh7 cells): +++ (high toxicity, with cell viability less than 60% of vehicle) |
